Measured values published in patent US20210322395A1, “METHOD TO PREVENT AND TREAT HEARING LOSS BY CALCIUM CHANNEL BLOCKERS, ANGIOTENSIN CONVERTING ENZYME INHIBITORS, AND ANGIOTENSIN RECEPTOR BLOCKERS” (priority 2018, published 2021).

Experiments:
[1] = system: hearing loss; assay: Prevention of recurrence of hearing loss in a successfully treated patient, one ear treated, other ear untreated; format: in vivo, human; conditions: patient after successful treatment, untreated side again exhibits symptoms
Text: A composition comprising the calcium channel blocker nifedipine is directly applied to the external ear space of one ear while the other ear is left untreated. […] A composition comprising the ACE inhibitor enalapril is directly applied to the external ear space of one ear while the other ear is left untreated. […] A composition comprising the angiotensin receptor blocker losartan is directly applied to the external ear space of one ear while the other ear is left untreated. […] A composition comprising the calcium channel blocker nifedipine is administered by injection into the middle ear space of one ear while the other ear is left untreated. […] A composition comprising the ACE inhibitor enalapril is administered by injection into the middle ear space of one ear while the other ear is left untreated. […] A composition comprising the angiotensin receptor blocker losartan is administered by injection into the middle ear space of one ear while the other ear is left untreated. […] A composition comprising the calcium channel blocker nifedipine is administered by injection into the inner ear space of one ear while the other ear is left untreated. […] A composition comprising the ACE inhibitor enalapril is administered by injection into the inner ear space of one ear while the other ear is left untreated. […] A composition comprising the angiotensin receptor blocker losartan is administered by injection into the inner ear space of one ear while the other ear is left untreated.

[2] = system: hearing loss; assay: Treatment of hearing loss in a patient, one ear treated, other ear untreated; format: in vivo, human
Text: A patient is diagnosed with hearing loss of the same magnitude in both ears. A composition comprising the calcium channel blocker nifedipine is directly applied to the external ear space of one ear while the other ear is left untreated. […] A patient is diagnosed with hearing loss of the same magnitude in both ears. A composition comprising the ACE inhibitor enalapril is directly applied to the external ear space of one ear while the other ear is left untreated. […] A patient is diagnosed with hearing loss of the same magnitude in both ears. A composition comprising the angiotensin receptor blocker losartan is directly applied to the external ear space of one ear while the other ear is left untreated. […] A patient is diagnosed with hearing loss of the same magnitude in both ears. A composition comprising the calcium channel blocker nifedipine is administered by injection into the middle ear space of one ear while the other ear is left untreated. […] A patient is diagnosed with hearing loss of the same magnitude in both ears. A composition comprising the ACE inhibitor enalapril is administered by injection into the middle ear space of one ear while the other ear is left untreated. […] A patient is diagnosed with hearing loss of the same magnitude in both ears. A composition comprising the angiotensin receptor blocker losartan is administered by injection into the middle ear space of one ear while the other ear is left untreated. […] A patient is diagnosed with hearing loss of the same magnitude in both ears. A composition comprising the calcium channel blocker nifedipine is administered by injection into the inner ear space of one ear while the other ear is left untreated. […] A patient is diagnosed with hearing loss of the same magnitude in both ears. A composition comprising the ACE inhibitor enalapril is administered by injection into the inner ear space of one ear while the other ear is left untreated. […] A patient is diagnosed with hearing loss of the same magnitude in both ears. A composition comprising the angiotensin receptor blocker losartan is administered by injection into the inner ear space of one ear while the other ear is left untreated.

[3] = composition directly applied to the external ear space of one ear
[4] = composition injected into the inner ear space of one ear
[5] = composition injected into the middle ear space of one ear

SMILES	level of hearing of treated ear after a period of time (recurrence of hearing loss) [1, 3]	level of hearing of treated ear after a period of time (recurrence of hearing loss) [1, 4]	level of hearing of treated ear after a period of time (recurrence of hearing loss) [1, 5]	hearing loss of treated ear compared to untreated ear [2, 3]	hearing loss of treated ear compared to untreated ear [2, 4]	hearing loss of treated ear compared to untreated ear [2, 5]
CCCCc1nc(Cl)c(CO)n1Cc1ccc(-c2ccccc2-c2nn[nH]n2)cc1 [losartan]	maintained the level of hearing	maintained the level of hearing	maintained the level of hearing	reduced hearing loss	reduced hearing loss	reduced hearing loss
CCOC(=O)[C@H](CCc1ccccc1)N[C@@H](C)C(=O)N1CCC[C@H]1C(=O)O [enalapril]	maintained the level of hearing	maintained the level of hearing	maintained the level of hearing	reduced hearing loss	reduced hearing loss	reduced hearing loss
